{"source": "paper PMC3621832", "about": "“Non-Complexed Four Cascade Enzyme Mixture: Simple Purification and Synergetic Co-stabilization” (PLoS ONE, 2013)", "format_in_all_cases": "biochemical", "key": {"[1]": {"target": "T1, fructose bisphosphatase (FBP) (Thermotoga maritima, UniProt O33832)", "T1 construct": "gene suhB; recombinant, E. coli, plasmid pCIF (CBM-intein-FBP), tag-free after intein self-cleavage", "T1 sequence (O33832 1-256)": "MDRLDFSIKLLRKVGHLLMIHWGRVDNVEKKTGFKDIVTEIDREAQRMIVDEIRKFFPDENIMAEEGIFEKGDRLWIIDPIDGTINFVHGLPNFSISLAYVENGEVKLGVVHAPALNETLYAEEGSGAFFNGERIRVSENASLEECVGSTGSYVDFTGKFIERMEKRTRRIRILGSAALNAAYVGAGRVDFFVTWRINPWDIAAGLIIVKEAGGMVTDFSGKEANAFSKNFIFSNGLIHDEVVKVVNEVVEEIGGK", "assay": "FBP activity assay as described elsewhere; also in four-enzyme cascade"}, "[2]": {"target": "T2, fructose bisphosphate aldolase (ALD) (Thermotoga maritima, UniProt Q9WYB0)", "T2 construct": "gene TM_0273; heat and ammonium sulfate purification", "T2 sequence (Q9WYB0 1-315)": "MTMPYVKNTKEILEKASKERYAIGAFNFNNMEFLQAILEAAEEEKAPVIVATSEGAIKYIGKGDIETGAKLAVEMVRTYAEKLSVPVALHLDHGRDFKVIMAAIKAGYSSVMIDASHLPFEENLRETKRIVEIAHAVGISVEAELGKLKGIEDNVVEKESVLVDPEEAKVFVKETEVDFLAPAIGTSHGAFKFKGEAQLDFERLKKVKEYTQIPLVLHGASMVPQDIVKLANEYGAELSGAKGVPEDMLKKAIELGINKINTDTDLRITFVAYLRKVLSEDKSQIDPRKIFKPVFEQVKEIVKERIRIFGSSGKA", "assay": "coupled cascade with TIM, FBP and PGI; G6P by enzymatic glucose reagent"}, "[3]": {"target": "T3, phosphoglucose isomerase (PGI) (Acetivibrio thermocellus, UniProt A3DBX9)", "T3 construct": "recombinant, E. coli, plasmid pCIP (CBM-intein-PGI), tag-free after intein self-cleavage", "T3 sequence (A3DBX9 1-448)": "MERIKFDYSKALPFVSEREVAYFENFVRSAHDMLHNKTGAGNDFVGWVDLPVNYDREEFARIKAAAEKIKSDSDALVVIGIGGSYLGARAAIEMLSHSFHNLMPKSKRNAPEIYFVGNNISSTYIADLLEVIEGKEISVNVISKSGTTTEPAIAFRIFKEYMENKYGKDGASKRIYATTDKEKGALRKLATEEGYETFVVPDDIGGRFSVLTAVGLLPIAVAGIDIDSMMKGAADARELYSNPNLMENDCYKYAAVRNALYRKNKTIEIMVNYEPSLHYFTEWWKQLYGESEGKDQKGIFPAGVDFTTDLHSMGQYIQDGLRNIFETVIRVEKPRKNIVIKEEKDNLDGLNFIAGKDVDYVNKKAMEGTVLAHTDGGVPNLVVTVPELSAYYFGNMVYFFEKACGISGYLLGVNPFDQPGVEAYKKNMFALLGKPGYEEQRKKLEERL", "assay": "G6P formation by enzymatic glucose kit", "details": "100 mM HEPES pH 7.5, 10 mM MgCl2, 0.5 mM MnCl2, 60°C"}}, "data": [{"smiles": "O=P(O)(O)OC[C@H]1OC(O)(COP(=O)(O)O)[C@@H](O)[C@@H]1O", "note": "(stereo partly shown) [fructose 1,6-bisphosphate]", "values": [{"measurement": "FBP activity assay as described elsewhere; also in four-enzyme cascade", "setting": "[1]", "result": "FBP catalyses the irreversible conversion of F16P to fructose 6-phosphate (F6P)"}]}, {"smiles": "O=C(CO)COP(=O)(O)O", "note": "[dihydroxyacetone phosphate]", "values": [{"measurement": "coupled cascade with TIM, FBP and PGI; G6P by enzymatic glucose reagent", "setting": "[2]; co-substrate G3P", "result": "G3P and DHAP were substrates and F16P was the product"}]}, {"smiles": "O=P(O)(O)OC[C@H]1OC(O)(CO)[C@@H](O)[C@@H]1O", "note": "(stereo partly shown) [fructose 6-phosphate]", "values": [{"measurement": "G6P formation by enzymatic glucose kit", "setting": "[3]", "result": "PGI reversibly converts fructose-6-phosphate (F6P) and glucose-6-phosphate (G6P)"}]}, {"smiles": "O=C[C@H](O)COP(=O)(O)O", "note": "[glyceraldehyde-3-phosphate]", "values": [{"measurement": "coupled cascade with TIM, FBP and PGI; G6P by enzymatic glucose reagent", "setting": "[2]; co-substrate DHAP", "result": "G3P and DHAP were substrates and F16P was the product"}]}]}
